In patent publication US6784153B1, “Methods of homing molecules to lung using membrane dipeptidase” (The Burnham Institute, priority 1998, dated 2004):
Entries after “also recorded” stand apart in the source; their conditions may differ.

What was measured:
[1] = test system: lung primary cells; test: phage binding assay on lung primary cells; design: species or system mice
Protocol: Phage binding to primary cells was performed as follows. Briefly, Balb/c mice (Harlan Sprague Dawley) were anesthetized with 0.017 ml/g of Avertin as described in Gardner et al., Lab. […] Under deep anesthesia, mice were perfused through the heart with 10 ml Dulbecco's modified Eagle's medium (DMEM; Irvine Scientific; Santa Ana, Calif.). The lungs, kidneys and brain were then collected, minced, placed in 2 ml of DMEM containing 0.5% BSA (Intergen; Purchase, N.Y.) and 0.5 μg/ml collagenase V (SIGMA) and incubated at 37° C. for 25 minutes. Following collagenase treatment, the tissue was forced through a […] pore cell strainer (Becton Dickinson; Franklin Lake, N.J.). The filtered cells were washed once with 10 ml DMEM supplemented with 10% serum.
For the binding reaction, 10^9 transducing units (TU) of phage were incubated with 5×10^6 cells in 1 ml DMEM supplemented with 10% serum. The binding was performed at 4° C. for 2 hours with gentle agitation. After the binding reaction, the cells were washed four times with 1 ml of DMEM supplemented with 10% serum at room temperature for 5 to 10 minutes each time. The cells were centrifuged, and the cell pellet resuspended in 100 μl of DMEM and transferred to a new tube. […] The bacteria were then diluted in 10 ml of LB culture media supplemented with 0.2 μg/ml tetracycline, and incubated for another 30 minutes at room temperature. Serial dilutions of the bacterial culture were plated on LB plates containing 40 μg/ml tetracycline. Plates were incubated at 37° C. overnight before the colonies were counted (transducing units, TU).

[2] = test system: rat lung blood vessels; test: targeting of rat lung blood vessels by injected phage; assay type: in vivo; conditions: phage injected in the circulation
[3] = target: T1, 55 kDa lung vascular surface protein (Mus musculus, UniProt P31428); test: peptide affinity chromatography of in vivo biotinylated lung extract; assay type: binding; conditions: elution with GFE-1 peptide
T1 construct: from tissue; host or cells: Balb/c mouse lung, in vivo biotinylated, octylglucoside extract
T1 sequence (P31428 17-384): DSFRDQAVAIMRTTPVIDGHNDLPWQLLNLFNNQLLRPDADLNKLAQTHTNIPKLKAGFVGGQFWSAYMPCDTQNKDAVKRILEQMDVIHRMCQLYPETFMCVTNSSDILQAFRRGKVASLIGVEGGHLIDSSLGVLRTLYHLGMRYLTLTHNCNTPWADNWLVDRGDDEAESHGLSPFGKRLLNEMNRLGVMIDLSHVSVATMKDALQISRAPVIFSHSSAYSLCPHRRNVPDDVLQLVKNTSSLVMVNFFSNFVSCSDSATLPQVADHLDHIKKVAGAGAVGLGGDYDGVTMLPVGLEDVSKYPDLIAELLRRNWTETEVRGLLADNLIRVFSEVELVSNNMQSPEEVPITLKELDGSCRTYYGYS
Protocol: In vivo biotinylation of endothelial cell surface proteins was performed as previously described in De La Fuente et al., Am. J. Physiol. […] Briefly, Balb/c mice were anesthetized with Avertin and perfused slowly through the heart for 10 to 15 minutes with approximately 15 ml of PBS containing 0.5 mg/ml of sulfo-NHS-LC-biotin (Pierce; Rockford, Ill.). Well perfused lungs or control tissues such as brain were then collected and incubated on ice for 20 minutes. The tissues were then homogenized for preparation of extracts as described further below.
For preparation of extracts, mouse or rat lungs were first minced and then homogenized with a Brinkman homogenizer (Brinkman; Wesbury, N.Y.) in a minimal volume (2.5 ml/g of tissue) of cold PBS containing 100 mM N-octyl-β-D-glucopyranoside (Calbiochem; La Jolla, Calif.) with 1 mM phenylmethylsulfonyl fluoride (PMSF), 20 μg/ml aprotinin and 1 μg/ml leupeptin (PBS/octylglucoside). The homogenized tissue was incubated on ice for 2 hours, and then centrifuged at 12,000×g for 30 minutes to remove cell debris. The pooled supernatants were cleared of any debris prior to affinity chromatogaphy.
All steps were performed at 4° C. […] The matrix contained approximately 2 mg/ml of peptide. […] The extract was applied to the column, and the flow-through re-applied over a period of 90 minutes. The column was then washed with 20 volumes of column buffer. […]

[4] = test system: C8161 human melanoma cells; conditions: cells and peptide mixture cultured overnight; data not shown
[5] = test system: primary brain cells; test: phage binding assay on primary brain cells; design: species or system mice; conditions: in vitro
Protocol: Phage binding to primary cells was performed as follows. Briefly, Balb/c mice (Harlan Sprague Dawley) were anesthetized with 0.017 ml/g of Avertin as described in Gardner et al., Lab. Animal Sci. 45:199-204 (1995), which is incorporated herein by reference. Under deep anesthesia, mice were perfused through the heart with 10 ml Dulbecco's modified Eagle's medium (DMEM; Irvine Scientific; Santa Ana, Calif.). The lungs, kidneys and brain were then collected, minced, placed in 2 ml of DMEM containing 0.5% BSA (Intergen; Purchase, N.Y.) and 0.5 μg/ml collagenase V (SIGMA) and incubated at 37° C. for 25 minutes. Following collagenase treatment, the tissue was forced through a […] pore cell strainer (Becton Dickinson; Franklin Lake, N.J.). The filtered cells were washed once with 10 ml DMEM supplemented with 10% serum. […] To ensure an equal input of the different phage to be tested, phage were titered several times using K91Kan bacteria (Smith and Scott, supra, 1993).
For the binding reaction, 10^9 transducing units (TU) of phage were incubated with 5×10^6 cells in 1 ml DMEM supplemented with 10% serum. The binding was performed at 4° C. for 2 hours with gentle agitation. […] Plates were incubated at 37° C. overnight before the colonies were counted (transducing units, TU).

Question: With CGFECVRQCPERC [lung homing peptide] as the sequence, how does the “inhibition of GFE-1 phage binding to lung cells” value ([1]; 150 μM peptide) read?
Answer: ~70%

Question: What about the “phage bound by primary lung cells relative to insertless fd-tet phage” value ([1]; 10^9 TU phage, 5×10^6 cells, 4° C., 2 hours) of the same sequence?
Answer: about 60 fold

Question: What about the “targeting of rat lung blood vessels” value [2] of the same sequence?
Answer: selectively target rat lung blood vessels

Question: And the “binding of lung surface protein to peptide affinity column” value [3]?
Answer: a 55 kDa biotinylated protein was selectively eluted; also recorded: specifically binds to a 55 kDa lung vascular surface protein

Question: What about the “toxicity to the melanoma cells” value [4] of the same sequence?
Answer: Neither the GFE-1 (SEQ ID NO: 1) or CARAC (SEQ ID NO: 443) peptides exhibited toxicity

Question: And the “phage binding to primary brain cells” value [5]?
Answer: no specific binding
